Reference: patent US7569550B2, “14 and 15 membered ring compounds” (Glaxo Group Limited, priority 2003, dated 2009)
Where a name gives a salt, the structure may show the parent alone. Read-outs that look alike come from different tables or passages of the source.

Columns and labels:
Assay in all cases: MIC, standard broth dilution method in microtitre
Assay type in all cases: cell-based
S. pyogenes 3565 = settings: Streptococcus pyogenes
Experimental: (§1) Using a standard broth dilution method in microtitre, compounds were tested for antibacterial activity. The compounds in the above examples gave minimum inhibitory concentrations (MICs) less than 1 microgram per millilitre against erythromycin-sensitive and erythromycin-resistant strains of Streptococcus pneumoniae and Streptococcus pyogenes.
(§2) In addition, the MIC (μg/ml) of test compounds against various organisms was determined including:
(§3) S. aureus Smith ATCC 13709, S. pneumoniae SP030, S. pyogenes 3565, E. faecalis ATCC 29212, H. influenzae ATCC 49247, M. catarrhalis ATCC 23246.

H. influenzae ATCC 49247 = settings: Haemophilus influenzae, ATCC49247
Experimental: as §1, §2, §3

[1] = tested on: M. catarrhalis ATCC 23246; settings: Moraxella catarrhalis, ATCC23246
Experimental: as §1, §2, §3

[2] = tested on: S. aureus Smith ATCC 13709; settings: Staphylococcus aureus, ATCC13709
Experimental: as §1, §2, §3

E. faecalis ATCC 29212 = settings: Enterococcus faecalis, ATCC29212
Experimental: as §1, §2, §3

S. pneumoniae SP030 = settings: Streptococcus pneumoniae
Experimental: as §1, §2, §3

[3] = tested on: erythromycin resistant strains of Streptococcus pyogenes
Experimental: as §1

[4] = tested on: erythromycin resistant strains of Streptococcus pneumoniae
Experimental: as §1

[5] = H. influenzae ATCC 49247, read-out: MIC

Measured: MIC

CC[C@@H]1OC(=O)[C@H](C)[C@H](O[C@H]2C[C@](C)(OC)[C@@H](OCCN(C)CCNc3cc4c(cc3F)c(=O)c(C(=O)O)cn4C3CC3)[C@@H](C)O2)[C@@H](C)[C@H](O[C@H]2O[C@@H](C)C[C@@H](N(C)C)[C@H]2O)[C@](C)(OC)C[C@H](C)C(=O)[C@H](C)[C@H]2OC(=O)O[C@@]12C [Example 1, 4″-O-(2-{[2-(3-Carboxy-1-cyclopropyl-6-fluoro-4-oxo-1,4-dihydro-quinolin-7-ylamino)-ethyl]-methylamino}-ethyl)-6-O-methyl-erythromycin A 11,12-carbonate bis trifluoroacetate]
≤ 1 µg/mL: S. pyogenes 3565 | [2] | E. faecalis ATCC 29212 | S. pneumoniae SP030 | [3] | [4]
≤ 4 µg/mL: H. influenzae ATCC 49247 | [1]

CC[C@H]1OC(=O)[C@H](C)[C@@H](O[C@H]2C[C@@](C)(OC)[C@@H](OCCCN(C)CCCc3cc4c5c(c3)c(=O)c(C(=O)O)cn5CCC4)[C@H](C)O2)[C@H](C)[C@@H](O[C@@H]2O[C@H](C)C[C@H](N(C)C)[C@H]2O)[C@](C)(OC)C[C@@H](C)C(=O)[C@@H](C)[C@H]2NC(=O)O[C@@]21C [Example 31, 4″-O-{3-[[3-(2-Carboxy-1-oxo-6,7-dihydro-1H,5H-pyrido[3,2,1-ij]quinolin-9-yl)-propyl]-methylamino]-propyl}-6-O-methyl-11-desoxy-11-(R)-amino-erythromycin A 11,12-carbamate]
≤ 1 µg/mL: S. pyogenes 3565 | [2] | E. faecalis ATCC 29212 | S. pneumoniae SP030 | [3] | [4]
≤ 4 µg/mL: H. influenzae ATCC 49247; [5] | [1]

CC[C@H]1OC(=O)[C@H](C)[C@@H](O[C@H]2C[C@@](C)(OC)[C@@H](OCCCNCCCc3ccc4c(c3C)c(=O)c(C(=O)O)cn4CC)[C@H](C)O2)[C@H](C)[C@@H](O[C@@H]2O[C@H](C)CC(N(C)C)[C@H]2O)[C@](C)(OC)C[C@@H](C)C(=O)[C@@H](C)[C@H]2NC(=O)O[C@@]21C (stereo partly drawn) [Example 23, 4″-O-{3-[3-(3-Carboxy-1-ethyl-5-methyl-4-oxo-1,4-dihydro-quinolin-6-yl)-propylamino]-propyl}-6-O-methyl-11-desoxy-11-(R)-amino-erythromycin A 11,12-carbamate formate]
≤ 4 µg/mL: H. influenzae ATCC 49247; [5] | [1]
≤ 1 µg/mL: S. pyogenes 3565 | [2] | E. faecalis ATCC 29212 | S. pneumoniae SP030 | [3] | [4]

CC[C@@H]1OC(=O)[C@H](C)[C@H](O[C@@H]2C[C@](C)(OC)[C@H](OCCCN(C)CCCc3ccc4c(c3)c(=O)c(C(=O)O)cn4CC)[C@H](C)O2)[C@@H](C)[C@H](O[C@H]2O[C@@H](C)C[C@@H](N(C)C)[C@H]2O)[C@](C)(OC)C[C@H](C)C(=O)[C@H](C)[C@H]2NC(=O)O[C@@]12C [Example 29, 4″-O-{3-[[3-(3-Carboxy-1-ethyl-4-oxo-1,4-dihydro-quinolin-6-yl)-propyl]-methylamino]-propyl}-6-O-methyl-11-desoxy-11-(R)-amino-erythromycin A 11,12-carbamate formate]
≤ 1 µg/mL: S. pyogenes 3565 | [2] | E. faecalis ATCC 29212 | S. pneumoniae SP030 | [3] | [4]
≤ 4 µg/mL: H. influenzae ATCC 49247; [5] | [1]

CC[C@@H]1OC(=O)[C@H](C)[C@H](O[C@@H]2C[C@](C)(OC)[C@H](OCCCOCCCc3ccc4c(c3)c(=O)c(C(=O)O)cn4CC)[C@H](C)O2)[C@@H](C)[C@H](O[C@H]2O[C@@H](C)C[C@@H](N(C)C)[C@H]2O)[C@](C)(OC)C[C@H](C)C(=O)[C@H](C)[C@H](O)[C@@]1(C)O [Example 20, 4″-O-{3-[3-(3-Carboxy-1-ethyl-4-oxo-1,4-dihydro-quinolin-6-yl)-propoxy]-propyl}-6-O-methyl-erythromycin A monoformate]
≤ 1 µg/mL: S. pyogenes 3565 | [2] | E. faecalis ATCC 29212 | S. pneumoniae SP030 | [3] | [4]
≤ 4 µg/mL: H. influenzae ATCC 49247; [5] | [1]

CC[C@@H]1OC(=O)[C@H](C)[C@H](O[C@@H]2C[C@](C)(OC)[C@H](OCCCN(C)CCNc3cc4c(cc3F)c(=O)c(C(=O)O)cn4C3CC3)[C@H](C)O2)[C@@H](C)[C@H](O[C@H]2O[C@@H](C)C[C@@H](N(C)C)[C@H]2O)[C@](C)(OC)C[C@H](C)C(=O)[C@H](C)[C@H]2OC(=O)O[C@@]12C [Example 2, 4″-O-(3-{[2-(3-Carboxy-1-cyclopropyl-6-fluoro-4-oxo-1,4-dihydro-quinolin-7-ylamino)ethyl]-methylamino}-propyl)-6-O-methyl-erythromycin A 11,12-carbonate]
≤ 4 µg/mL: H. influenzae ATCC 49247; [5] | [1]
≤ 1 µg/mL: S. pyogenes 3565 | [2] | E. faecalis ATCC 29212 | S. pneumoniae SP030 | [3] | [4]
